Measurements: the NIST ThermoML archive (doi:10.1016/j.jct.2007.06.009)

What was measured:
[1] = 303.15 K; 101 kPa; Liquid
[2] = refractive index (Na D-line) (dimensionless); conditions: 303.15 K; 101.33 kPa; Liquid; Standard Abbe refractometry
[3] = xn = mol fraction of the nth substance listed; conditions: 303.15 K, 101 kPa, Liquid
[4] = refractive index (Na D-line) (dimensionless); xn = mol fraction of the nth substance listed; conditions: 303.15 K, 101 kPa, Liquid, Standard Abbe refractometry
[5] = excess molar enthalpy (molar enthalpy of mixing); xn = mol fraction of the nth substance listed; conditions: 303 K, 101 kPa, Liquid

CCCCO [butan-1-ol]
Conditions	mass density [kg/m3]	refractive index	viscosity [mPa·s]
[1]	802.2	–	2.195
[2]	–	1.39479	–

CCCCO [butan-1-ol] + CCC(C)=O
x1 = 1
Conditions	excess molar enthalpy [kcal/mol]	mass density [kg/m3]	refractive index	viscosity [mPa·s]
[3]	–	802.2	–	2.195
[4]	–	–	1.39479	–
[5]	0	–	–	–

CCC(C)=O [butanone]
Conditions	mass density [kg/m3]	refractive index	viscosity [mPa·s]
[1]	794.5	–	0.347
[2]	–	1.37383	–

CCC(C)=O [butanone] + CCCCO
Conditions	excess molar enthalpy [kcal/mol]	mass density [kg/m3]	refractive index	viscosity [mPa·s]
[3], x2 = 0	–	794.5	–	0.347
[3], x2 = 0.0704	–	–	–	0.364
[3], x2 = 0.0765	–	795	–	–
[3], x2 = 0.1392	–	795.4	–	–
[3], x2 = 0.1468	–	–	–	0.388
[3], x2 = 0.2097	–	795.9	–	–
[3], x2 = 0.2163	–	–	–	0.421
[3], x2 = 0.2775	–	796.4	–	–
[3], x2 = 0.2818	–	–	–	0.455
[3], x2 = 0.3429	–	–	–	0.479
[3], x2 = 0.3488	–	796.9	–	–
[3], x2 = 0.4244	–	–	–	0.553
[3], x2 = 0.442	–	797.6	–	–
[3], x2 = 0.4933	–	798	–	–
[3], x2 = 0.4988	–	–	–	0.615
[3], x2 = 0.5008	–	798.1	–	–
[3], x2 = 0.5577	–	798.5	–	–
[3], x2 = 0.5755	–	–	–	0.704
[3], x2 = 0.6404	–	799.2	–	–
[3], x2 = 0.6474	–	799.3	–	0.813
[3], x2 = 0.7105	–	–	–	0.925
[3], x2 = 0.7257	–	799.9	–	–
[3], x2 = 0.7799	–	–	–	1.091
[3], x2 = 0.7944	–	800.5	–	–
[3], x2 = 0.8562	–	801	–	–
[3], x2 = 0.8596	–	–	–	1.342
[3], x2 = 0.9263	–	–	–	1.645
[3], x2 = 0.9307	–	801.6	–	–
[4], x2 = 0	–	–	1.37383	–
[4], x2 = 0.0765	–	–	1.37557	–
[4], x2 = 0.1392	–	–	1.37702	–
[4], x2 = 0.2097	–	–	1.37867	–
[4], x2 = 0.2775	–	–	1.3802	–
[4], x2 = 0.3488	–	–	1.3819	–
[4], x2 = 0.442	–	–	1.38402	–
[4], x2 = 0.4933	–	–	1.38514	–
[4], x2 = 0.5008	–	–	1.38533	–
[4], x2 = 0.5577	–	–	1.3866	–
[4], x2 = 0.6404	–	–	1.38835	–
[4], x2 = 0.6474	–	–	1.38848	–
[4], x2 = 0.7257	–	–	1.39011	–
[4], x2 = 0.7944	–	–	1.39145	–
[4], x2 = 0.8562	–	–	1.3926	–
[4], x2 = 0.9307	–	–	1.39387	–
[5], x2 = 0	0	–	–	–
[5], x2 = 0.134	0.154	–	–	–
[5], x2 = 0.193	0.22	–	–	–
[5], x2 = 0.289	0.281	–	–	–
[5], x2 = 0.35	0.324	–	–	–
[5], x2 = 0.425	0.352	–	–	–
[5], x2 = 0.514	0.351	–	–	–
[5], x2 = 0.619	0.337	–	–	–
[5], x2 = 0.7	0.293	–	–	–
[5], x2 = 0.769	0.268	–	–	–
[5], x2 = 0.82	0.203	–	–	–
[5], x2 = 0.911	0.141	–	–	–
